Tested on: human neurotensin receptor proteins expressed in HEK cell membranes
Assay: SPA [3H] neurotensin receptor binding assay
Settings: displacement of 4 nM [3H]neurotensin, 2 hours, room temperature
Text: The Citrullimycines according to the invention show inhibition in the neurotensin receptor binding assay of human neurotensin receptor proteins expressed in HEK cell membranes.
SPA [^3H] Neurotensin Receptor Binding Assay
Compounds with an affinity for the neurotensin receptor will displace the binding of [3H] neurotensin, which results in a diminished radioactive signal. In the SPA method, receptors immobilized directly on PVT WGA (Wheat Germ Agglutinin) coated SPA beads (Amersham Pharmacia) bind the radiolabelled ligand. The ligand-receptor complex is held in close enough proximity to stimulate emission of light by the bead. Any unbound radioligand is too distant from the bead to transfer energy and therefore will not be detected.
The samples were pre-diluted 1:5 with assay buffer (50 mM Tris-HCl buffer with 1 mM EDTA, 0.2 mM Bacitracin, and 0.1% BSA, pH 7.4) in deep well plates. The final dilution in the assay was 1:20. 96-well isoplates from Wallac were used for the screening. […]
On each plate, four wells without samples were used to determine the total receptor-ligand binding and another four wells with 1 μM (L-α, γ-diaminobutyryl) neurotensin were used to determine the nonspecific binding respectively. Inhibition activities are expressed as: […]

`CCC(C)CCC(O)CC(=O)OC(CCC(C)C)CC(=O)NC(CCCNC(N)=O)C(=O)OC(CCC(C)CC)CC(=O)OC(CCC(C)CC)CC(=O)O` (stereo not shown) [Citrullimycine A] showed an IC50 of 16 µM.

Reference: patent publication US6930130B2, “Citrullimycines, a process for their production and their use as pharmaceuticals” (Aventis Pharma Deutschland GmbH, priority 2000, dated 2005)
